Here are results for 9 compounds from PubChem BioAssay (NCI).

Common to all, as to experiment: inhibition of tumour cell growth, NCI panel, 48 h
Test [1] relates to NCI-H226 lung.
Test [2] deals with MOLT-4 leukemia.
Test [3] deals with SN12C renal.
For test [4], the system named is SF-295 CNS.
Test [5] deals with SK-MEL-2 melanoma.
In test [6] the test system is SF-268 CNS.
The subject of test [7] is UACC-62 melanoma.
The subject of test [8] is OVCAR-8 ovarian.
Test [9] has as its system SR leukemia.
Test [10] has as its system UACC-257 melanoma.

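Dose response: 5 concentrations. Exposure: 48 h. Format: 96-well plates. Endpoint: linear interpolation; highest concentration if not reached. Here, GI50 denotes the concentration required for 50% inhibition of growth. TGI is the concentration that stops growth completely.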 Where only a bound is given, the exact number is not on record here.

With `CCOC(=O)C(=O)Nc1cccc(C)c1C`, the TGI in test [1], in test [2], in test [3], in test [4], in test [5] and in test [6] was more than 100 µM in each case. The TGI in test [7], in test [8], in [9] and in test [10] was more than 100 µM throughout.

As for `Cc1nc(N(CCO)CCO)c2sc(=S)n(-c3ccccc3)c2n1`, the TGI in test [1], in test [2], in test [4], in [5], in test [6] and in test [7] was more than 100 µM in each case. Moreover, the TGI in [8], in test [9] and in test [10] was more than 100 µM each time.

Regarding `COC(=O)C1=C(O)C(C(=O)OC)[C@@]2(O)[C@@H](C(=O)OC)CC[C@@H]1[C@@H]2C(=O)OC` (stereo partly drawn), the TGI was 70.9 µM in [1]; more than 100 µM in test [2]; more than 100 µM in test [3]; 49.3 µM in test [5]; 75.5 µM in test [6]; more than 100 µM in [7]. For the same compound, the TGI in test [9] is 63.9 µM; in [10], more than 100 µM.

As for `BrC1=CN2C[n+]3cc(Br)c4ccccc4c3N=C2c2ccccc21`, the TGI was found to be 33.2 µM in test [2]; 50.4 µM in test [3]; 21.5 µM in [4]; 22.3 µM in [5]; 22.1 µM in test [6]; 20.9 µM in [7]. For the same compound, the TGI was 38.6 µM in test [8], 9.01 µM in test [9] and 48.8 µM in test [10].

Turning to `COc1cc(C2S/C(=C/c3ccccc3)C(=O)N2c2ccccc2Cl)cc(OC)c1OC` (stereo not drawn), the TGI was more than 100 µM in test [1]; more than 100 µM in [2]; 62.1 µM in test [3]; more than 100 µM in [4]; 39.7 µM in test [5]; more than 100 µM in [6]. For the same compound, the values for the TGI in test [7], in [8] and in [10] were more than 100 µM, 49.8 µM and more than 100 µM, respectively.

For `CN(CCO)/N=N/c1nc[nH]c1C(N)=O`, the TGI in [1], in test [2], in test [3], in test [4], in test [5] and in test [6] was more than 100 µM throughout. Also, the TGI in [7], in test [8], in [9] and in test [10] was more than 100 µM in each case.

For the compound `C/C([O-])=C(/c1nc(-c2ccc([N+](=O)[O-])o2)no1)[n+]1cc(C)ccc1C`, the TGI in [1] is 31.6 µM; in test [2], more than 100 µM; in test [3] it was 29.3 µM; in test [4], 24.1 µM; in test [5], 19.7 µM; in [6], 62.3 µM. Besides, the values for the TGI in test [7], in test [8] and in test [10] were 21.3 µM, more than 76.6 µM and 24.2 µM, respectively.

Take `Cc1ccc(S(=O)(=O)Nc2cc(Sc3ccccc3)c(O)c3ccccc23)cc1`: the GI50 was 14.7 µM in [1]; 1.96 µM in test [2]; 2.31 µM in test [3]; 12.9 µM in test [4]; 3.73 µM in test [5]; 2.57 µM in test [6]. The GI50 in test [7] is 2.41 µM; in test [8], 2.28 µM; in [9] it was 3.27 µM; in test [10], 1.86 µM. Also, the TGI is 39.3 µM in test [1]; 5.62 µM in test [2]; 5.68 µM in test [3]; 26.8 µM in [4]; 16 µM in test [5]; 8.07 µM in test [6]. Also, the TGI in test [7] was found to be 6.72 µM; in test [8], 5.88 µM; in test [9], 12.6 µM; in [10] it was 3.67 µM.

Regarding `COc1cc(Cc2ccc3c(c2C#N)N(C)c2ccccc2S3)cc(OC)c1OC`, the TGI in test [1], in test [2], in test [3], in test [4], in test [5] and in test [6] was more than 100 µM in each case. Further, the TGI in test [8], in [9] and in test [10] was more than 100 µM each time.
